Data reported in patent publication US20230303647A1, “CYCLIC CHEMERIN-9 DERIVATIVES” (priority 2020, published 2023).
“Also recorded” adds a separate entry of the source. Each block holds one compound with its values, some of them ahead of it. *1 amine or outer side, *2 acyl side, *3 side chain or, on linkers, in order; H or OH if unused. Where a SMILES comes first, the peptide text is derived from it. Bridges are numbered along the chain shown (N, C = ends). [ ]: non-standard residue; d: D form. The star is where a group is joined. ξ: configuration not given here. X1 = CN(C)c1ccc2c(-c3cc(C(=O)*)ccc3C(=O)[O-])c3ccc(=[N+](C)C)cc-3oc2c1; X2 = CN(C)c1ccc2c(-c3cc(C(=O)*)ccc3C(=O)O)c3ccc(=[N+](C)C)cc-3oc2c1; PEG4 = NCCOCCOCCOCCOCCC(=O)O; d(hCys) = N[C@H](CCS)C(=O)O; hCys = N[C@@H](CCS)C(=O)O; ξF = NC(Cc1ccccc1)C(=O)O; CH2 = C([*:1])[*:2]; ξC = NC(CS)C(=O)O

Columns and labels:
CMKLR1 [1] = target: T1, CMKLR1 (Homo sapiens, UniProt Q99788); assay: Ca2+ mobilization assay (G protein-mediated signaling); conditions: for G protein signaling activity (in words): Ca2+ mobilization assay
T1 sequence (Q99788 1-373): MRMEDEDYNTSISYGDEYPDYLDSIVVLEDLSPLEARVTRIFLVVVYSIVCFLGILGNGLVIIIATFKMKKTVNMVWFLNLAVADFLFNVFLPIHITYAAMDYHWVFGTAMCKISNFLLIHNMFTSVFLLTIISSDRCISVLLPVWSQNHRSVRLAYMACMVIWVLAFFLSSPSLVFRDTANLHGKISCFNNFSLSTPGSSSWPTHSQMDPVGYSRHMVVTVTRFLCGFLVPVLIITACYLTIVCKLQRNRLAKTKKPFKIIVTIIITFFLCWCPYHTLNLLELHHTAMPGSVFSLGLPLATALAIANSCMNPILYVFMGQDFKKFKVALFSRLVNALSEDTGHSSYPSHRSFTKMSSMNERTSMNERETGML
Experimental: COS-7 cells were transfected in 75 cm^2 cell culture flasks with 12 μg of the hCMKLR1_eYFP_GαΔ6qi4myr_pV2 plasmid overnight using Metafectene Pro. Transfected cells were seeded in 96 well plates (100 μL cell suspension in DMEM+10% FBS/well) and incubated overnight. The following day, the Ca^2+-mobilization was performed as described previously. […] All experiments were performed in triplicates, each experiment was repeated at least twice. Nonlinear regression was calculated using GraphPad Prism 5.

[2] = Plasma stability assay of Tam-labeled peptides; conditions: for half-life: human; for stability in blood plasma: over a time period of 24 h
Experimental: Investigation of peptide stability in blood plasma was carried out as described previously. […] Samples taken at the respective time points were added to a solution of 0.1% SDS in ACN/EtOH (1:1). After incubation at −20° C. for 20 min, the supernatant was transferred to a new tube and incubated again at −20° C. for at least 3 h. The solution was filtered by centrifugation using Costar Spin-X tubes (0.22 μm) and the filtrate was analyzed by RP-HPLC on a VariTide RPC. […] Peaks were integrated and the peak containing the intact peptide was normalized to the sample taken at t=0 min (100%).

CMKLR1 [3] = target: T1, CMKLR1; assay: BRET-based arrestin 3 recruitment assay; conditions: for arrestin 3 recruitment to the CMKLR1 (in words): BRET, compared with chemerin-9; for Emax: read-out: Emax [%] ± SEM
Experimental: HEK293 cells were transiently transfected using 75 cm^2 cell culture flasks with cell monolayers (confluency of ˜80%). Plasmid DNA of the C-terminally eYFP tagged human CMKLR1 and the chimeric G protein GαΔ6qi4myr in a pVitro2 vector (7.8 μg) and Renilla-luciferase 8-tagged Arrestin 3 in pcDNA3 (0.2 μg) and 24 μl MetafectenePro were separately added to 900 μl DMEM/Ham's F12 and incubated for 10 min before unification and incubation at RT for 20 min. […] The plasmid solution was added and cells were incubated overnight before seeding. Cell seeding was carried out in white 96-well polystyrene cell culture microplates, coated with poly-D lysine. […] Afterwards, the cells were incubated overnight at 37° C. The assay was performed under unsterile conditions. […] Afterwards, the cells were stimulated with the peptides in different concentrations (10^−5 to 10^−12 M) dissolved in BRET buffer. 50 μl of the peptide dilution were used for cell stimulation. Buffer without peptide was used as a negative control. […] The values of the negative control were subtracted, non-linear regression was calculated using GraphPad Prism. […] All measurements were performed in four technical replicates, all experiments were repeated at least twice.
The bioluminescence resonance energy transfer (BRET) assay was used to determine the potency of cyclic chemerin variants to recruit arrestin 3 to the CMKLR1 receptor after stimulation. HEK293 cells were transiently transfected with CMKLR1 receptor fused with eYFP fluorophore and Arrestin 3 tagged with Rluc8 luciferase. The transfected cells were seeded, incubated with the luciferase substrate coelenterazine-h and stimulated with different peptide concentrations, resulting in measurable BRET signals.

CMKLR1 [4] = target: T1, CMKLR1; assay: Fluorescence microscopy of CMKLR1 internalization and arrestin 3 recruitment; type: cell-based; parameters: expressed in transfected cells; host or cells: HEK293; conditions: HEK293 cells, 1 μM peptide, 30 min stimulation
Experimental: Ibidi 15μ-slides were coated with poly D-lysine before cell seeding. Cells were washed with DPBS prior to detachment with 1 ml trypsin/EDTA. […] The cell suspension was diluted to 140,000 cells/200 μl, which were seeded. Incubation was carried out overnight at 37° C. Afterwards, cells were transiently transfected. Plasmid DNA of hCMKLR1_eYFP_GαΔ6qi4myr_pV2 (0.9 μg) and mCherry_Arr3_pcDNA3 (0.1 μg) and 8 μl Lipofectamine were separately added to 100 μl DMEM/Ham's F12 and incubated for 10 min before unification and incubation at RT for 20 min. Incubation was carried out overnight at 37° C. […] The medium was replaced by 200 μl of OptiMEM and the to status was documented. The OptiMEM was then replaced by 200 μl of 1 μM peptide in OptiMEM. Fluorophore excitation was analyzed using different filters, depending on the emission wavelength of the fluorophore and the time of exposure was adjusted to each fluorophore individually. All images were processed identically with the AxioVision software (Carl Zeiss AG, Oberkochen, Germany).
To verify the arrestin-recruitment and analyze the internalization of the CMKLR1 receptor itself, HEK293 cells were used and transiently transfected with fluorescent labeled variants of the two molecules.
FIG. 2: Internalization of CMKLR1 and arrestin 3 recruitment. HEK293 cells expressing the hCMKLR1 (green) and arrestin 3 (Arr3; red) due to transient transfection were used for the internalization studies.

[5] = COS-7 cells transfected with hCMKLR1_eYFP_GαΔ6qi4myr, normalized to chemerin-9
[6] = pEC50 ± SEM, COS-7 cells transfected with hCMKLR1_eYFP_GαΔ6qi4myr, normalized to chemerin-9

pEC50 ± SEM (CMKLR1 [1]; [5]): 7.553 ± 0.067
SMILES: C[C@@H]1NC(=O)[C@H](Cc2ccccc2)NC(=O)[C@H](CCC(N)=O)NC(=O)[C@H](NC(=O)[C@@H]2CCCN2C(=O)[C@H](Cc2ccccc2)NC(=O)[C@H](N)Cc2ccc(O)cc2)CSCSCC[C@@H](C(=O)O)NC(=O)[C@H](Cc2ccccc2)NC1=O [$$ 11, [y1,c4,X9-TA]-chemerin-9] (H-[dY]FP[dC]QFAF[hCys]-OH; linker 4-9 via CH2)

Emax (CMKLR1 [3]): 86.8 ± 4%
SMILES: C[C@@H]1NC(=O)[C@H](Cc2ccccc2)NC(=O)[C@H](CCC(N)=O)NC(=O)[C@H](NC(=O)[C@@H]2CCCN2C(=O)[C@H](Cc2ccccc2)NC(=O)[C@@H](N)Cc2ccc(O)cc2)CCSSC[C@@H](C(=O)O)NC(=O)[C@H](Cc2ccccc2)NC1=O [$$ 13, [x4,C9]-chemerin-9] (H-YFP[d(hCys)]QFAFC-OH; disulfide 4-9)
arrestin 3 recruitment to the CMKLR1 (in words) (CMKLR1 [3]): only slightly shifted EC50 and Emax values; also recorded: slight loss of activity

arrestin 3 recruitment to the CMKLR1 (in words) (CMKLR1 [3]): accepted; also recorded: no impact | Emax (CMKLR1 [3]): 102 ± 5%
SMILES: C[C@@H]1NC(=O)[C@H](Cc2ccccc2)NC(=O)[C@H](CCC(N)=O)NC(=O)[C@H](NC(=O)[C@@H]2CCCN2C(=O)[C@H](Cc2ccccc2)NC(=O)[C@H](Cc2ccc(O)cc2)NC(=O)CCOCCOCCOCCOCCN)CCSSC[C@@H](C(=O)O)NC(=O)[C@H](Cc2ccccc2)NC1=O [$$ 16, EG4-[x4,C9]-chemerin-9] (H-[PEG4]YFP[d(hCys)]QFAFC-OH; disulfide 5-10)

half-life ([2]; human blood plasma): > 48 h
SMILES: C[C@@H]1NC(=O)[C@H](Cc2ccccc2)NC(=O)[C@H](CCC(N)=O)NC(=O)[C@H](NC(=O)[C@@H]2CCCN2C(=O)[C@H](Cc2ccccc2)NC(=O)[C@H](Cc2ccc(O)cc2)NC(=O)CCOCCOCCOCCOCCNC(=O)c2ccc(C(=O)[O-])c(-c3c4ccc(=[N+](C)C)cc-4oc4cc(N(C)C)ccc34)c2)CCSSC[C@@H](C(=O)O)NC(=O)[C@H](Cc2ccccc2)NC1=O [$$ 17, Tam-EG4-[x4,C9]-chemerin-9] ({X1-PEG4}-YFP[d(hCys)]QFAFC-OH; disulfide 4-9)

half-life ([2]; human blood plasma): > 48 h
SMILES: C[C@@H]1NC(=O)[C@H](Cc2ccccc2)NC(=O)[C@H](CCC(N)=O)NC(=O)[C@H](NC(=O)[C@@H]2CCCN2C(=O)[C@H](Cc2ccccc2)NC(=O)[C@H](Cc2ccc(O)cc2)NC(=O)CCOCCOCCOCCOCCNC(=O)c2ccc(C(=O)[O-])c(-c3c4ccc(=[N+](C)C)cc-4oc4cc(N(C)C)ccc34)c2)CCSSC[C@@H](C(=O)O)NC(=O)[C@H](Cc2c[nH]c3ccccc23)NC1=O [$$ 19, Tam-EG4-[x4,W8,C9]-chemerin-9] ({X1-PEG4}-YFP[d(hCys)]QFAWC-OH; disulfide 4-9)

EC50 (CMKLR1 [3]; EC50, HEK293 cells, CMKLR1-eYFP and Rluc8-arrestin 3, 15 min after agonist addition): 100 nM | Emax (CMKLR1 [3]): 89 ± 5% | EC50 (CMKLR1 [1]): 21.1 nM
SMILES: CC(=O)NCC(=O)N[C@@H](Cc1ccccc1)C(=O)N[C@@H](CC(C)C)C(=O)NCC(=O)N[C@@H](Cc1ccc(O)cc1)C(=O)N[C@@H](Cc1ccccc1)C(=O)N1CCC[C@H]1C(=O)N[C@@H]1CCSSC[C@@H](C(=O)O)NC(=O)[C@H](Cc2ccccc2)NC(=O)[C@H](C)NC(=O)[C@H](Cc2ccccc2)NC(=O)[C@H](CCC(N)=O)NC1=O [$$ 20, GFLG-[x4,C9]-chemerin-9] (Ac-GFLGYFP[d(hCys)]QFAFC-OH; disulfide 8-13)

The next lines start with the compound.

SMILES: C[C@@H]1NC(=O)[C@H](Cc2ccccc2)NC(=O)[C@H](CCC(N)=O)NC(=O)[C@H](NC(=O)[C@@H]2CCCN2C(=O)[C@H](Cc2ccccc2)NC(=O)[C@@H](N)Cc2ccc(O)cc2)CSSC[C@@H](C(=O)O)NC(=O)[C@H](Cc2ccccc2)NC1=O [$$ 4, [c4,C9]-chemerin-9, reference compound] (H-YFP[dC]QFAFC-OH; disulfide 4-9)
EC50 (CMKLR1 [1]; [5]): 64 nM | pEC50 ± SEM (CMKLR1 [1]; [5]): 7.192 ± 0.147

SMILES: C[C@@H]1NC(=O)[C@H](Cc2ccccc2)NC(=O)[C@H](CCC(N)=O)NC(=O)[C@H](NC(=O)[C@@H]2CCCN2C(=O)[C@H](Cc2ccccc2)NC(=O)[C@H](Cc2ccc(O)cc2)NC(=O)c2ccc(C(=O)O)c(-c3c4ccc(=[N+](C)C)cc-4oc4cc(N(C)C)ccc34)c2)CSSC[C@@H](C(=O)O)NC(=O)[C@H](Cc2ccccc2)NC1=O [$$ 5, Tam-[c4,C9]-chemerin-9] (X2-YFP[dC]QFAFC-OH; disulfide 4-9)
half-life ([2]; human blood plasma): > 24 h | stability in blood plasma [2]: completely stable

SMILES: NC(=O)CC[C@@H]1NC(=O)[C@H](NC(=O)[C@@H]2CCCN2C(=O)[C@H](Cc2ccccc2)NC(=O)[C@@H](N)Cc2ccc(O)cc2)CSSC[C@@H](C(=O)N[C@@H](Cc2ccccc2)C(=O)N[C@@H](CO)C(=O)O)NC(=O)[C@H](Cc2ccccc2)NC1=O [$$ 6, [c4,C7]-chemerin-9, reference compound] (H-YFP[dC]QFCFS-OH; disulfide 4-7)
EC50 (CMKLR1 [1]): 62.5 nM

SMILES: C[C@@H]1NC(=O)[C@H](Cc2ccccc2)NC(=O)[C@H](CCC(N)=O)NC(=O)[C@H](NC(=O)[C@@H]2CCCN2C(=O)[C@H](Cc2ccccc2)NC(=O)[C@@H](N)Cc2ccc(O)cc2)CSCSC[C@@H](C(=O)O)NC(=O)[C@H](Cc2ccccc2)NC1=O [$$ 7, [c4,C9-TA]-chemerin-9] (H-YFP[dC]QFAFC-OH; linker 4-9 via CH2)
pEC50 ± SEM (CMKLR1 [1]; [5]): 7.888 ± 0.130

SMILES: C[C@@H]1NC(=O)[C@H](Cc2ccccc2)NC(=O)[C@H](CCC(N)=O)NC(=O)[C@H](NC(=O)[C@@H]2CCCN2C(=O)[C@H](Cc2ccccc2)NC(=O)[C@H](Cc2ccc(O)cc2)NC(=O)c2ccc(C(=O)[O-])c(-c3c4ccc(=[N+](C)C)cc-4oc4cc(N(C)C)ccc34)c2)CSCSC[C@@H](C(=O)O)NC(=O)[C@H](Cc2ccccc2)NC1=O [$$ 8, Tam-[c4,C9-TA]-chemerin-9] (X1-YFP[dC]QFAFC-OH; linker 4-9 via CH2)
half-life ([2]; plasma): > 24 h | stability in blood plasma [2]: completely stable

SMILES: C[C@@H]1NC(=O)[C@H](Cc2ccccc2)NC(=O)[C@H](CCC(N)=O)NC(=O)[C@H](NC(=O)[C@@H]2CCCN2C(=O)[C@H](Cc2ccccc2)NC(=O)[C@@H](N)Cc2ccc(O)cc2)CSCSCC[C@@H](C(=O)O)NC(=O)[C@H](Cc2ccccc2)NC1=O [$$ 9, [c4,X9-TA]-chemerin-9] (H-YFP[dC]QFAF[hCys]-OH; linker 4-9 via CH2)
stability in blood plasma [2]: completely stable | pEC50 ± SEM (CMKLR1 [1]; [5]): 7.429 ± 0.110

SMILES: CN(C)c1ccc2c(-c3cc(C(=O)NCCCC[C@H]4NC(=O)C(Cc5ccccc5)NC(=O)[C@@H](CCC(N)=O)NC(=O)[C@H](NC(=O)[C@@H]5CCCN5C(=O)[C@@H](Cc5ccccc5)NC(=O)[C@H](N)Cc5ccc(O)cc5)CSSCC(C(=O)O)NC(=O)[C@@H](Cc5ccccc5)NC4=O)ccc3C(=O)[O-])c3ccc(=[N+](C)C)cc-3oc2c1 (some centres unmarked) [$$ 12, [y1,c4,K7(Tam),C9]-chemerin-9] (H-[dY][dF]P[dC][dQ][ξF][dK](X1)[dF][ξC]-OH; disulfide 4-9)
half-life ([2]; human blood plasma): > 24 h | stability in blood plasma [2]: equally stable

SMILES: C[C@@H]1NC(=O)[C@H](Cc2ccccc2)NC(=O)[C@H](CCC(N)=O)NC(=O)[C@H](NC(=O)[C@@H]2CCCN2C(=O)[C@H](Cc2ccccc2)NC(=O)[C@@H](N)Cc2ccc(O)cc2)CCSSC[C@@H](C(=O)O)NC(=O)[C@H](Cc2c[nH]c3ccccc23)NC1=O [$$ 14, [x4,W8,C9]-chemerin-9] (H-YFP[d(hCys)]QFAWC-OH; disulfide 4-9)
EC50 (CMKLR1 [3]): 158 nM | arrestin 3 recruitment to the CMKLR1 (in words) (CMKLR1 [3]): accepted; also recorded: no impact | Emax (CMKLR1 [3]): 97 ± 10% | G protein signaling activity (in words) (CMKLR1 [1]): increased the activity even more | EC50 (CMKLR1 [1]; EC50, COS-7 cells transfected with hCMKLR1_eYFP_GαΔ6qi4myr, normalized to chemerin-9): 3 nM | EC50 (CMKLR1 [1]; [6]): 3.17 nM

SMILES: C[C@@H]1NC(=O)[C@H](Cc2ccccc2)NC(=O)[C@H](CCC(N)=O)NC(=O)[C@H](NC(=O)[C@@H]2CCCN2C(=O)[C@H](Cc2ccccc2)NC(=O)[C@H](N)Cc2ccc(O)cc2)CCSSC[C@@H](C(=O)O)NC(=O)[C@H](Cc2c[nH]c3ccccc23)NC1=O [$$ 15, [y1,x4,W8,C9]-chemerin-9] (H-[dY]FP[d(hCys)]QFAWC-OH; disulfide 4-9)
arrestin 3 recruitment to the CMKLR1 (in words) (CMKLR1 [3]): no longer able to induce arrestin 3-recruitment; also recorded: completely abolishes arrestin recruitment | arrestin 3 recruitment and internalization of the CMKLR1 (CMKLR1 [4]): neither internalization of the hCMKLR1 nor arrestin 3 recruitment could be detected | G protein signaling activity (in words) (CMKLR1 [1]): significantly decreased activity | EC50 (CMKLR1 [1]; [6]): 207 nM
